According to US20230338380A1, “Stable Immediate Release Tablet and Capsule Formulations of 1-((2S,5R)-5-((7H-Pyrrolo[2,3-D]Pyrimidin-4-YL)Amino)-2-Methylpiperidin-1-YL)Prop-2-EN-1-One” (Pfizer R&D UK Limited, priority 2019, published 2023):

Experiment: Dynamic vapor sorption (DVS) of filler excipients
Format: physicochemical
Settings: excipient alone; humidity of 90% RH
Description: Also noted were the stability results for experimental formulation E, blended with lactose anhydrous. […] Lactose anhydrous was used in blend E rather than lactose monohydrate due to concerns regarding the impact of water upon the degradation of PF-06651600-15. To further explore the hygroscopic properties of lactose monohydrate, dynamic vapor sorption (DVS) traces were generated for both lactose anhydrous and lactose monohydrate (FIG. 24). The results for both were similar as the mass increased less than 2% at a humidity of 90% RH.

Mass increase (DVS): ~1.1%
Structure (SMILES): OC[C@H]1O[C@@H](O[C@H]2[C@H](O)[C@@H](O)C(O)O[C@@H]2CO)[C@H](O)[C@@H](O)[C@H]1O (stereo partly shown) [lactose anhydrous]
